The text below walks through data of patent publication US6727076B2 (priority 1995, dated 2004).

Format in all cases: cell-based
In assay [1] the test system is E. coli strain 11547 (O157:H7).
For assay [2], the system named is E. coli strain 6322 (EMG2 (K12, λF+)). Also: key: '+' indicates that the organism tested was capable of utilizing the carbon source listed; '−' indicates that the organism tested was not capable of utilizing the carbon source listed; 'w' indicates weak positive reactions.
The subject of assay [3] is E. coli strain 13675 (O157).
For assay [4], the system named is E. coli strain 6321 (MG1655). Also: key: '+' indicates that the organism tested was capable of utilizing the carbon source listed; '−' indicates that the organism tested was not capable of utilizing the carbon source listed; 'w' indicates weak positive reactions.
The subject of assay [5] is E. coli strain 6320 (W3110).
Assay [6] relates to E. coli strain 13673 (O157).
Assay [7] deals with E. coli strain 14444 (MG1655 xylA).
Assay [8] relates to E. coli strain 14443 (MG1655 (FB426)).
Assay [9] concerns E. coli strain 14445 (MG1655 himA). Also: key: '+' indicates that the organism tested was capable of utilizing the carbon source listed; '−' indicates that the organism tested was not capable of utilizing the carbon source listed; 'w' indicates weak positive reactions.
For assay [10], the system named is E. coli strain 13671 (O157:H? gur+).
Assay [11] has as its system E. coli 287 (ATCC #11775).

As for `C[C@H](O)C(=O)O` [L-lactic acid], the carbon source utilization result in assay [1], in assay [2], in assay [3], in assay [4], in assay [5] and in [6] was “+” throughout. The carbon source utilization entry in [7], in assay [8], in assay [9] and in assay [10] was “+” in each case.
Regarding `O=C(O)Cc1ccc(O)cc1` [P-hydroxy phenylacetic acid], the carbon source utilization entry in [1], in assay [2], in assay [3], in assay [4], in assay [5] and in [6] was “−” each time. Moreover, the carbon source utilization result in [7], in assay [8], in assay [9] and in [10] was “−” throughout. Further, the “carbon source utilization result” value in assay [11] is listed as “negative”.
With `CC(O)CO` (centres unmarked) [1,2-propanediol], the carbon source utilization entry in assay [1], in assay [2], in [3], in [4], in assay [5] and in assay [6] was “−” in each case. Besides, the carbon source utilization entry in assay [7], in assay [8], in assay [9] and in [10] was “−” each time.
With `O=C(O)CC(O)C(=O)O` (racemic) [D,L-malic acid], the carbon source utilization entry in assay [1], in [2], in assay [3], in [4], in assay [5] and in [6] was “+” throughout. Further, the carbon source utilization entry in assay [7], in assay [8], in assay [9] and in assay [10] was “+” each time.
As for `CO[C@H]1O[C@H](CO)[C@H](O)[C@H](O)[C@H]1O` [α-methyl galactoside], the carbon source utilization entry in assay [1], in assay [2], in [3], in assay [4], in [5] and in assay [6] was “+” throughout. In addition, the carbon source utilization entry in assay [7], in assay [8], in [9] and in assay [10] was “+” in each case.
With `O=C1O[C@H]([C@@H](O)CO)[C@@H](O)[C@@H]1O` [L-galactonic acid γ-lactone], the carbon source utilization entry in [1], in assay [2], in assay [3], in [4], in assay [5] and in assay [6] was “+” each time. Further, the carbon source utilization result in assay [7], in [8], in assay [9] and in assay [10] was “+” throughout.
Regarding `O=C(O)C[C@H](O)C(=O)O` [L-malic acid], the carbon source utilization result in assay [1], in assay [2], in assay [3], in assay [4], in assay [5] and in assay [6] was “+” in each case. Further, the carbon source utilization entry in [7], in assay [8], in [9] and in [10] was “+” in each case.
